Laboratory results taken from the supplement of paper PMC10307832.

Legend:
Assay in all cases: relative viability (nuclei count vs DMSO), 5 days (fraction); higher = more cells survive
[1] = compound: O=c1[nH]cc(F)c(=O)[nH]1 [5-Fluorouracil] + Nc1ncn([C@H]2C[C@H](O)[C@@H](CO)O2)c(=O)n1 [Decitabine] (partner 2 µM)
Outline: (§1)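 A single step with final 0.05% Triton X-100, 1% formaldehyde and 1 ug/ml Hoechst fixed the cells and stained nuclei 5 days after treatment. Lung cancer cell lines in 1536-well plates had been treated by pin tool the day after seeding with one drug alone or a fixed anchor-drug dose plus five library-drug doses (not always all listed) in √10 steps, and nuclei were counted on 4× images. Relative viability is the ratio of nuclei in treated wells to nuclei in vehicle wells, taken as the median of duplicate plates.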

[2] = compound: CC1=C(CC(=O)O)c2cc(F)ccc2/C1=C\c1ccc([S+](C)[O-])cc1 [Sulindac] + Cc1cc(Nc2cc(N3CCN(C)CC3)nc(Sc3ccc(NC(=O)C4CC4)cc3)n2)n[nH]1 [Tozasertib] (partner 0.1 µM)
Outline: as §1

[3] = compound: O=c1[nH]cc(F)c(=O)[nH]1 [5-Fluorouracil] + C[C@]1(O)C[C@@H](c2nc(-c3ccc4ccc(-c5ccccc5)nc4c3)c3c(N)nccn32)C1 [Linsitinib] (partner 1 µM)
Outline: as §1

[4] = compound: CN[C@@H]1C[C@H]2O[C@@](C)([C@@H]1OC)n1c3ccccc3c3c4c(c5c6ccccc6n2c5c31)C(=O)NC4 [Staurosporine] + COc1cccc2cc(-c3nc([C@H]4CC[C@H](C(=O)O)CC4)n4ncnc(N)c34)[nH]c12 [OSI-027] (partner 0.5 µM)
Outline: as §1

| Cell Line | relative viability ([1]; first compound 0.02 µM) | relative viability ([1]; first compound 0.2 µM) | relative viability ([1]; first compound 0.6325 µM) | relative viability ([1]; first compound 2 µM) | relative viability ([2]; first compound 0.08 µM) | relative viability ([2]; first compound 0.253 µM) | relative viability ([2]; first compound 0.8 µM) | relative viability ([2]; first compound 2.53 µM) | relative viability ([2]; first compound 8 µM) | relative viability ([3]; first compound 0.02 µM) | relative viability ([3]; first compound 0.6325 µM) | relative viability ([3]; first compound 2 µM) | relative viability ([4]; first compound 0.005 µM) | relative viability ([4]; first compound 0.01581 µM) | relative viability ([4]; first compound 0.05 µM) | relative viability ([4]; first compound 0.1581 µM) | relative viability ([4]; first compound 0.5 µM) | relative viability ([3]; first compound 0.2 µM) |
| --- | --- | --- | --- | --- | --- | --- | --- | --- | --- | --- | --- | --- | --- | --- | --- | --- | --- | --- |
| NCI-H460 | 0.484 | 0.38 | 0.111 | 0.0586 | 0.639 | 0.439 | 0.667 | 0.46 | 0.314 | 0.872 | 0.163 | 0.042 | 0.47 | 0.303 | 0.329 | 0.0118 | 0.006 | – |
| SK-MES-1 | 0.339 | 0.352 | 0.323 | 0.294 | 1.07 | 1.01 | 0.848 | 0.956 | 1.09 | 1.07 | 0.433 | 0.337 | 0.202 | 0.18 | 0.147 | 0.134 | 0.106 | 0.799 |
| NCI-H2085 | 0.516 | 0.567 | 0.657 | 0.526 | 0.789 | 0.842 | 0.829 | 0.797 | 0.807 | 0.894 | 0.932 | 0.587 | 0.597 | 0.168 | 0.249 | 0.155 | 0.148 | 0.963 |
| LC-2-ad | 0.806 | 0.725 | 0.561 | 0.417 | 0.382 | 0.451 | 0.374 | 0.391 | 0.46 | 0.868 | 0.463 | 0.299 | 0.807 | 0.25 | 0.342 | 0.216 | 0.199 | 0.798 |
| 201T | 0.885 | 0.559 | 0.3 | 0.257 | 1.08 | 0.94 | 0.957 | 0.94 | 0.98 | 0.991 | 0.452 | 0.342 | 0.462 | 0.338 | 0.454 | 0.247 | – | 0.955 |
| NCI-H2023 | 0.271 | 0.141 | 0.106 | 0.0886 | 0.558 | 0.365 | 0.322 | 0.3 | 0.41 | 0.45 | 0.131 | 0.0929 | 0.185 | 0.101 | 0.084 | 0.0704 | 0.0498 | 0.242 |
| NCI-H1395 | 0.802 | 0.781 | 0.771 | 0.736 | 0.694 | 0.732 | 0.776 | 0.733 | 0.866 | 0.884 | 1.03 | 1.25 | 0.605 | 0.395 | 0.42 | 0.249 | 0.239 | 1.19 |
| NCI-H23 | 0.33 | 0.295 | 0.367 | 0.279 | 0.292 | – | 0.323 | 0.354 | 0.535 | 0.488 | 0.444 | 0.271 | 0.518 | – | 0.248 | 0.16 | 0.0998 | 0.631 |
| LU99A | 0.898 | 0.898 | 0.731 | 0.483 | 0.265 | 0.266 | 0.285 | 0.252 | 0.286 | 0.549 | 0.426 | 0.422 | 0.224 | 0.164 | 0.229 | 0.155 | 0.144 | 0.607 |
| NCI-H1437 | 0.522 | 0.308 | 0.28 | 0.237 | 0.438 | 0.434 | 0.32 | 0.397 | 0.429 | – | 0.169 | 0.119 | 0.744 | – | 0.587 | 0.183 | 0.181 | 0.26 |
